Values of other authors as cited in patent publication US20250288604A1, “SUGAR-CONJUGATED LIPID NANOPARTICLES FOR TARGETED DELIVERY OF SIRNA TO HEPATOCYTES” (University of Virginia Patent Foundation, priority 2022, published 2025).

Settings: single ionizable lipid

pKa | Compound
6.09 | CCCCCCCCC(CCCCCC)C(=O)OCCCCCCN(CCCCO)CCCCCCOC(=O)C(CCCCCC)CCCCCCCC (stereo not drawn) [ALC-0315]
6.44 | CCCCC/C=C\C/C=C\CCCCCCCCC(CCCCCCCC/C=C\C/C=C\CCCCC)OC(=O)CCCN(C)C [DLinMc3DMA, (6Z,9Z,28Z,31Z)-Heptatriaconta-6,9,28,31-tetraen-19-yl 4-(dimethylamino) butanoate]
6.75 | CCCCCCCCCCCOC(=O)CCCCCN(CCO)CCCCCCCC(=O)OC(CCCCCCCC)CCCCCCCC [SM-102]
